# From ChEMBL document CHEMBL3885881, “DrugMatrix”
# Species on record: Rattus norvegicus
# Test: DrugMatrix - Regimen: Daily Repeat
# Assay type: toxicity, organism-based, Sprague-Dawley
# Design: regimen Daily Repeat, gender Male, age 6-8 weeks
# Settings: in vivo, po, route oral GAVAGE, […]; for ABSOLUTE BASOPHIL / ABSOLUTE EOSINOPHIL / ABSOLUTE LYMPHOCYTE / ABSOLUTE MONOCYTE / ABSOLUTE SEGMENTED NEUTROPHIL / BASOPHIL / EOSINOPHIL / ERYTHROCYTE COUNT / HEMATOCRIT / HEMOGLOBIN / LEUKOCYTE COUNT / LYMPHOCYTE / MEAN CORPUSCULAR HEMOGLOBIN / MEAN CORPUSCULAR HEMOGLOBIN CONCENTRATION / MEAN CORPUSCULAR VOLUME / MONOCYTE / NEUTROPHIL / NUCLEATED RED BLOOD CELLS / PLATELET COUNT: tissue Blood; for ALANINE AMINOTRANSFERASE / ALBUMIN / ALKALINE PHOSPHATASE / ASPARTATE AMINOTRANSFERASE / BLOOD UREA NITROGEN / CARBON DIOXIDE / CHLORIDE / CHOLESTEROL / CREATINE PHOSPHOKINASE / CREATININE / GLUCOSE / LACTATE DEHYDROGENASE / LIPASE / PHOSPHORUS / POTASSIUM / SODIUM / TOTAL BILIRUBIN / TOTAL PROTEIN / URIC ACID: tissue Plasma
# [1] = 1 mg/kg, 120 h, dose level Low, time 5 day
# [2] = 14 mg/kg, 72 h, dose level High, time 3 day
# [3] = 14 mg/kg, 120 h, dose level High, time 5 day
structure (smiles),measurement,setting,value
CCOC(=O)C1=C(C)NC(C)=C(C(=O)OCC)C1c1ccccc1/C=C/C(=O)OC(C)(C)C [LACIDIPINE],ABSOLUTE BASOPHIL,[1],0 CELLS/uL
same,ABSOLUTE EOSINOPHIL,[1],0 CELLS/uL
same,ABSOLUTE LYMPHOCYTE,[1],13674 CELLS/uL
same,ABSOLUTE MONOCYTE,[1],253 CELLS/uL
same,ABSOLUTE SEGMENTED NEUTROPHIL,[1],1206.33 CELLS/uL
same,BASOPHIL,[1],0%
same,EOSINOPHIL,[1],0%
same,ERYTHROCYTE COUNT,[1],6.05 x10E6/uL
same,HEMATOCRIT,[1],38.43%
same,HEMOGLOBIN,[1],15 G/DL
same,LEUKOCYTE COUNT,[1],15.13 x10E3/uL
same,LYMPHOCYTE,[1],90.33%
same,MEAN CORPUSCULAR HEMOGLOBIN,[1],24.8 pg
same,MEAN CORPUSCULAR HEMOGLOBIN CONCENTRATION,[1],39.07 G/DL
same,MEAN CORPUSCULAR VOLUME,[1],63.47 fL
same,MONOCYTE,[1],1.67%
same,NEUTROPHIL,[1],8%
same,NUCLEATED RED BLOOD CELLS,[1],0.33 /100WBC
same,PLATELET COUNT,[1],1182 x10E3/uL
same,ALANINE AMINOTRANSFERASE,[1],60.33 u/L
same,ALBUMIN,[1],4.13 G/DL
same,ALKALINE PHOSPHATASE,[1],378.33 u/L
same,ASPARTATE AMINOTRANSFERASE,[1],70.67 u/L
same,BLOOD UREA NITROGEN,[1],12.67 mg/dL
same,CARBON DIOXIDE,[1],30 mmol/L
same,CHLORIDE,[1],99.67 MEQ/L
same,CHOLESTEROL,[1],69 mg/dL
same,CREATINE PHOSPHOKINASE,[1],271.67 u/L
same,CREATININE,[1],0.17 mg/dL
same,GLUCOSE,[1],166.33 mg/dL
same,LACTATE DEHYDROGENASE,[1],125.67 u/L
same,LIPASE,[1],10 u/L
same,PHOSPHORUS,[1],10.93 mg/dL
same,POTASSIUM,[1],6.75 MEQ/L
same,SODIUM,[1],141.97 MEQ/L
same,TOTAL BILIRUBIN,[1],0.17 mg/dL
same,TOTAL PROTEIN,[1],5.83 G/DL
same,URIC ACID,[1],1.9 mg/dL
same,ABSOLUTE BASOPHIL,[2],0 CELLS/uL
same,ABSOLUTE EOSINOPHIL,[2],0 CELLS/uL
same,ABSOLUTE LYMPHOCYTE,[2],6598.33 CELLS/uL
same,ABSOLUTE MONOCYTE,[2],95.33 CELLS/uL
same,ABSOLUTE SEGMENTED NEUTROPHIL,[2],673 CELLS/uL
same,BASOPHIL,[2],0%
same,EOSINOPHIL,[2],0%
same,ERYTHROCYTE COUNT,[2],6.39 x10E6/uL
same,HEMATOCRIT,[2],38.67%
same,HEMOGLOBIN,[2],15.2 G/DL
same,LEUKOCYTE COUNT,[2],7.37 x10E3/uL
same,LYMPHOCYTE,[2],89.67%
same,MEAN CORPUSCULAR HEMOGLOBIN,[2],23.8 pg
same,MEAN CORPUSCULAR HEMOGLOBIN CONCENTRATION,[2],39.33 G/DL
same,MEAN CORPUSCULAR VOLUME,[2],60.53 fL
same,MONOCYTE,[2],1.33%
same,NEUTROPHIL,[2],9%
same,NUCLEATED RED BLOOD CELLS,[2],0.33 /100WBC
same,PLATELET COUNT,[2],1020.33 x10E3/uL
same,ALANINE AMINOTRANSFERASE,[2],81.67 u/L
same,ALBUMIN,[2],4 G/DL
same,ALKALINE PHOSPHATASE,[2],315.33 u/L
same,ASPARTATE AMINOTRANSFERASE,[2],94 u/L
same,BLOOD UREA NITROGEN,[2],9.33 mg/dL
same,CARBON DIOXIDE,[2],25 mmol/L
same,CHLORIDE,[2],94.33 MEQ/L
same,CHOLESTEROL,[2],62.33 mg/dL
same,CREATINE PHOSPHOKINASE,[2],287 u/L
same,CREATININE,[2],0.4 mg/dL
same,GLUCOSE,[2],140 mg/dL
same,LACTATE DEHYDROGENASE,[2],223.33 u/L
same,LIPASE,[2],9.67 u/L
same,PHOSPHORUS,[2],8.63 mg/dL
same,POTASSIUM,[2],4.28 MEQ/L
same,SODIUM,[2],137.47 MEQ/L
same,TOTAL BILIRUBIN,[2],0.2 mg/dL
same,TOTAL PROTEIN,[2],5.47 G/DL
same,URIC ACID,[2],0.53 mg/dL
same,ABSOLUTE BASOPHIL,[3],0 CELLS/uL
same,ABSOLUTE EOSINOPHIL,[3],59.67 CELLS/uL
same,ABSOLUTE LYMPHOCYTE,[3],14336 CELLS/uL
same,ABSOLUTE MONOCYTE,[3],190.33 CELLS/uL
same,ABSOLUTE SEGMENTED NEUTROPHIL,[3],2280.67 CELLS/uL
same,BASOPHIL,[3],0%
same,EOSINOPHIL,[3],0.33%
same,ERYTHROCYTE COUNT,[3],6.95 x10E6/uL
same,HEMATOCRIT,[3],41.6%
same,HEMOGLOBIN,[3],16.07 G/DL
same,LEUKOCYTE COUNT,[3],16.87 x10E3/uL
same,LYMPHOCYTE,[3],85.33%
same,MEAN CORPUSCULAR HEMOGLOBIN,[3],23.17 pg
same,MEAN CORPUSCULAR HEMOGLOBIN CONCENTRATION,[3],38.67 G/DL
same,MEAN CORPUSCULAR VOLUME,[3],59.9 fL
same,MONOCYTE,[3],1%
same,NEUTROPHIL,[3],13.33%
same,NUCLEATED RED BLOOD CELLS,[3],0 /100WBC
same,PLATELET COUNT,[3],1126 x10E3/uL
same,ALANINE AMINOTRANSFERASE,[3],90.33 u/L
same,ALBUMIN,[3],4.47 G/DL
same,ALKALINE PHOSPHATASE,[3],262.33 u/L
same,ASPARTATE AMINOTRANSFERASE,[3],95.67 u/L
same,BLOOD UREA NITROGEN,[3],10.33 mg/dL
same,CARBON DIOXIDE,[3],25.33 mmol/L
same,CHLORIDE,[3],97.67 MEQ/L
same,CHOLESTEROL,[3],58.67 mg/dL
same,CREATINE PHOSPHOKINASE,[3],234.67 u/L
same,CREATININE,[3],0.14 mg/dL
same,GLUCOSE,[3],154.67 mg/dL
same,LACTATE DEHYDROGENASE,[3],217 u/L
same,LIPASE,[3],9.33 u/L
same,PHOSPHORUS,[3],11.23 mg/dL
same,POTASSIUM,[3],4.62 MEQ/L
same,SODIUM,[3],138.03 MEQ/L
same,TOTAL BILIRUBIN,[3],0.33 mg/dL
same,TOTAL PROTEIN,[3],5.93 G/DL
same,URIC ACID,[3],1.6 mg/dL
